The values below come from US7153813B2, “Substituted aryl ketones” (Bayer Aktiengesellschaft, priority 2002, dated 2006).

In data set [1] the test system is weeds. The data set is described as follows: Pre-Emergence Test (Example A), damage to weeds. The class given is in vivo. The conditions noted are these: soil sprayed 24 hours after sowing, rated after three weeks. How it is done: (§1) • Solvent: 5 parts by weight of acetone • Emulsifier: 1 part by weight of alkylaryl polyglycol ether
To produce a suitable preparation of active compound, 1 part by weight of active compound is mixed with the stated amount of solvent, the stated amount of emulsifier is added and the concentrate is diluted with water to the desired concentration.
Seeds of the test plants are sown in normal soil. After 24 hours, the soil is sprayed with the preparation of active compound such that the particular amount of active compound desired is applied per unit area. The concentration of active compound in the spray liquor is chosen such that the particular amount of active compound desired is applied in 1000 liters of water per hectare.
After three Weeks, the degree of damage to the plants is rated in % damage in comparison to the development of the untreated control. The figures denote: • 0%=no effect (like untreated control) • 100%=total destruction

Data set [2] is described as follows: logP determination by HPLC (EEC Directive 79/831 Annex V.A8), reverse-phase column C 18. The class given is physicochemical. The note with it: for chromatographic logP: reverse-phase C18 HPLC column, stated in the preparation example, read-out: Log P. How it is done:
The logP values given in the tables were determined in accordance with EEC Directive 79/831 Annex V.A8 by HPLC (High Performance Liquid Chromatography) using a reverse-phase column (C 18). Temperature: 43° C. • (a) Mobile phases for the determination in the acidic range: 0.1% aqueous phosphoric acid, acetonitrile; linear gradient from 10% acetonitrile to 90% acetonitrile—corresponding measurement data are marked a) in Table 1. • (b) Mobile phases for the determination in the neutral range: 0.01 molar aqueous phosphate buffer solution, acetonitrile; linear gradient from 10% acetonitrile to 90% acetonitrile—the corresponding measurement data are marked b) in Table 1. The calibration was carried out using unbranched alkan-2-ones (having 3 to 16 carbon atoms) with known logP values (determination of the logP values by the retention times using linear interpolation between two successive alkanones).

Data set [3] has as its system weeds. As to the kind of experiment: Post-Emergence Test (Example B), damage to weeds. The conditions noted are these: test plants of 5–15 cm sprayed, rated after three weeks. Type of data set: in vivo. How it is done: as §1
To produce a suitable preparation of active compound, 1 part by weight of active compound is mixed with the stated amount of solvent, the stated of amount of emulsifier is added and the concentrate is diluted with water to the desired concentration.
Test plants of a height of 5–15 cm are sprayed with the preparation of active compound such that the particular amounts of active compound desired are applied per unit area. The concentration of the spray liquor is chosen such that the particular amounts of active compound desired are applied in 1000 l of water/Ha.
After three weeks, the degree of damage to the plants is rated in % damage in comparison to the development of the untreated control.
The figures denote: • 0%=no effect (like untreated control) • 100%=total destruction

Where [4] appears, read: HPLC, reverse-phase C 18, 43° C., acidic range: 0.1% aqueous phosphoric acid, acetonitrile, gradient 10% to 90% (marked a)).

Like-named read-outs stand apart in the source and are kept apart here.

Take `CCn1ncc(C(=O)c2ccc(C(F)(F)F)cc2CS(C)(=O)=O)c1O` [Example 1, (1-ethyl-5-hydroxy-1H-pyrazol-4-yl)-(2-methylsulphonylmethyl-4-trifluoromethylphenyl)methanone]: the “activity against weeds (degree of damage)” value (shortened to “activity against weeds”) in data set [1] and in data set [3] was “strong activity” throughout. In addition, the logP result in data set [2] (setting [4]) is “logP = 1.88^a)”. For the same molecule, in data set [2], the chromatographic logP amounted to 1.88.

Turning to `CCn1ncc(C(=O)c2ccc(C(F)(F)F)cc2CS(C)(=O)=O)c1OCc1ccc(Br)cc1` [Example 2, [1-ethyl-5-(4-bromophenylmethoxy)-1H-pyrazol-4-yl]-(2-methylsulphonylmethyl-4-trifluoromethylphenyl)methanone], the “activity against weeds” value in data set [1] and in data set [3] was “strong activity” throughout. Further, the logP entry in data set [2] (setting [4]) is “logP = 3.76^a)”. In addition, in data set [2], the chromatographic logP came to 3.76.

Consider `Cn1ncc(C(=O)c2ccc(C(F)(F)F)cc2CS(C)(=O)=O)c1O` [Example 4], for which the “activity against weeds” value in data set [1] is reported as “strong activity”. Moreover, the logP entry in data set [2] (setting [4]) is reported as “logP = 1.57^a)”.

Regarding `Cn1ncc(C(=O)c2ccc(C(F)(F)F)cc2CS(C)(=O)=O)c1OCc1ccccc1` [Example 5], the “activity against weeds” value in data set [1] and in data set [3] was “strong activity” in each case. Also, the logP result in data set [2] is “logP = 2.94^a)”.

For `Cn1ncc(C(=O)c2ccc(C(F)(F)F)cc2CS(C)(=O)=O)c1OCc1ccc(F)cc1` [Example 6], the “activity against weeds” value in data set [1] is given as “strong activity”. Also, the logP result in data set [2] is “logP = 3.02^a)”.

On to `Cn1ncc(C(=O)c2ccc(C(F)(F)F)cc2CS(C)(=O)=O)c1OCc1ccc(Cl)cc1` [Example 7], for which, in data set [1], the “activity against weeds” value is recorded as “strong activity”. Also, the logP entry in data set [2] was “logP = 3.32^a)”.

Regarding `Cn1ncc(C(=O)c2ccc(C(F)(F)F)cc2CS(C)(=O)=O)c1OCc1ccc(Br)cc1` [Example 8], the “activity against weeds” value in data set [1] is “strong activity”. The logP result in data set [2] is “logP = 3.41^a)”.

For the molecule `Cc1ccc(COc2c(C(=O)c3ccc(C(F)(F)F)cc3CS(C)(=O)=O)cnn2C)cc1` [Example 9], the “activity against weeds” value in data set [1] is on record as “strong activity”. Also, the logP result in data set [2] is reported as “logP = 3.26^a)”.

For the molecule `CCn1ncc(C(=O)c2ccc(C(F)(F)F)cc2CS(C)(=O)=O)c1OCc1ccc(Cl)cc1` [Example 10], the “activity against weeds” value in data set [1] is “strong activity”. Besides, the logP result in data set [2] is “logP = 3.64^a)”.

Turning to `CCn1ncc(C(=O)c2ccc(C(F)(F)F)cc2CS(C)(=O)=O)c1OCc1ccccc1` [Example 11], in data set [1], the “activity against weeds” value is listed as “strong activity”. Further, the logP result in data set [2] is “logP = 3.26^a)”.

For the molecule `CCn1ncc(C(=O)c2ccc(C(F)(F)F)cc2CS(C)(=O)=O)c1OCc1ccc(F)cc1` [Example 12], the “activity against weeds” value in data set [1] is listed as “strong activity”. The logP result in data set [2] is listed as “logP = 3.30^a)”.

For `CCn1ncc(C(=O)c2ccc(C(F)(F)F)cc2CS(C)(=O)=O)c1OCc1ccc(C)cc1` [Example 13], the “activity against weeds” value in data set [1] is reported as “strong activity”. Besides, the logP entry in data set [2] was “logP = 3.57^a)”.

Regarding `CCn1ncc(C(=O)c2ccc(C(F)(F)F)cc2CS(C)(=O)=O)c1OCc1cccc(F)c1` [Example 14], in data set [1], the “activity against weeds” value is recorded as “strong activity”. Besides, the logP entry in data set [2] is recorded as “logP = 3.30^a)”.

In the case of `CCn1ncc(C(=O)c2ccc(C(F)(F)F)cc2CS(C)(=O)=O)c1OCc1cccc(Cl)c1` [Example 15], in data set [1], the “activity against weeds” value is listed as “strong activity”. Further, in data set [2], the logP result was “logP = 3.60^a)”.

As for `CCn1ncc(C(=O)c2ccc(C(F)(F)F)cc2CS(C)(=O)=O)c1OCc1cccc(C)c1` [Example 16], the “activity against weeds” value in data set [1] is “strong activity”. For the same molecule, in data set [2], the logP entry is “logP = 3.57^a)”.

`CCn1ncc(C(=O)c2ccc(C(F)(F)F)cc2CS(C)(=O)=O)c1OCc1ccccc1F` [Example 17]: the “activity against weeds” value in data set [1] is “strong activity”. The logP result in data set [2] is “logP = 3.29^a)”.

As for `CCn1ncc(C(=O)c2ccc(C(F)(F)F)cc2CS(C)(=O)=O)c1OCc1ccccc1Cl` [Example 18], the “activity against weeds” value in data set [1] and in data set [3] was “strong activity” in each case. The logP result in data set [2] is reported as “logP = 3.56^a)”.

Regarding `CCn1ncc(C(=O)c2ccc(C(F)(F)F)cc2CS(C)(=O)=O)c1OCc1ccccc1C` [Example 19], the “activity against weeds” value in data set [1] and in data set [3] was “strong activity” throughout. Moreover, the logP result in data set [2] is on record as “logP = 3.52^a)”.

Turning to `CCn1ncc(C(=O)c2ccc(C(F)(F)F)cc2CS(C)(=O)=O)c1OCC(=O)c1ccccc1` [Example 20], the “activity against weeds” value in data set [1] and in data set [3] was “strong activity” in each case. Moreover, in data set [2], the logP entry is listed as “logP = 3.01^a)”.

On to `CCn1ncc(C(=O)c2ccc(C(F)(F)F)cc2CS(C)(=O)=O)c1OC(=O)c1ccccc1` [Example 21], for which the “activity against weeds” value in data set [1] is listed as “strong activity”. For the same molecule, the logP entry in data set [2] is recorded as “logP = 3.07^a)”.

As to `CCn1ncc(C(=O)c2ccc(C(F)(F)F)cc2CS(C)(=O)=O)c1OS(=O)(=O)c1ccc(C)cc1` [Example 22], the “activity against weeds” value in data set [1] is on record as “strong activity”. Further, the logP entry in data set [2] (setting [4]) was “logP = 3.39^a)”.

On to `CCn1ncc(C(=O)c2ccc(C(F)(F)F)cc2CS(C)(=O)=O)c1OS(C)(=O)=O` [Example 23], for which the “activity against weeds” value in data set [1] and in data set [3] was “strong activity” each time. Further, in data set [2], the logP entry is “logP = 2.50^a)”.

For `C#CCOc1c(C(=O)c2ccc(C(F)(F)F)cc2CS(C)(=O)=O)cnn1CC` [Example 24], the logP result in data set [2] is listed as “logP = 2.59^a)”.

With `CCOC(=O)COc1c(C(=O)c2ccc(C(F)(F)F)cc2CS(C)(=O)=O)cnn1CC` [Example 25], the logP entry in data set [2] was “logP = 2.72^a)”.

On to `CCOC(=O)C(C)Oc1c(C(=O)c2ccc(C(F)(F)F)cc2CS(C)(=O)=O)cnn1CC` (centres unmarked) [Example 26], for which the logP result in data set [2] is reported as “logP = 3.01^a)”.

On to `CCOC(=O)COc1c(C(=O)c2ccc(C(F)(F)F)cc2CS(C)(=O)=O)cnn1C` [Example 27], for which, in data set [2], the logP result was “logP = 2.44^a)”.

As for `CCOC(=O)C(C)Oc1c(C(=O)c2ccc(C(F)(F)F)cc2CS(C)(=O)=O)cnn1C` (centres unmarked) [Example 28], the logP result in data set [2] was “logP = 2.70^a)”.

For `C#CCOc1c(C(=O)c2ccc(C(F)(F)F)cc2CS(C)(=O)=O)cnn1C` [Example 29], the logP result in data set [2] was “logP = 2.30^a)”.

In the case of `CC1(C)CCC(=O)C(C(=O)c2ccc(C(F)(F)F)cc2CS(C)(=O)=O)C1=O` (centres unmarked) [Example 30], in data set [2], the logP entry is recorded as “logP = 2.86^a)”.

For `CCSCc1cc(C(F)(F)F)ccc1C(=O)c1cnn(CC)c1O` [Example 32], in data set [2] (setting [4]), the logP entry is on record as “logP = 3.36^a)”.

As for `CS(=O)(=O)Cc1cc(C(F)(F)F)ccc1C(=O)C1=C(Cl)CCCC1=O` [Example 33], in data set [2], the logP result is reported as “logP = 2.42^a)”.
